Read-outs that look alike come from different tables or passages of the source. Marks after values point to notes of the source that are not given here.
How the values were obtained:
CATPO variants = test: Effects on the phenol oxidase activity of the CATPO variants taken together; format: biochemical, Scytalidium thermophilum; settings: hydrogen peroxide 1–100 mM or ethanol 2–200 mM, before or after the addition of catechol
Procedure: All inhibition assays were performed in triplicate.

CATPO [1] = target: T1, CATPO (Scytalidium thermophilum (Humicola insolens), UniProt M4GGR5); test: Substrate-specificity analysis of the phenol oxidase activity; format: biochemical
T1 sequence (M4GGR5 entry or part of it): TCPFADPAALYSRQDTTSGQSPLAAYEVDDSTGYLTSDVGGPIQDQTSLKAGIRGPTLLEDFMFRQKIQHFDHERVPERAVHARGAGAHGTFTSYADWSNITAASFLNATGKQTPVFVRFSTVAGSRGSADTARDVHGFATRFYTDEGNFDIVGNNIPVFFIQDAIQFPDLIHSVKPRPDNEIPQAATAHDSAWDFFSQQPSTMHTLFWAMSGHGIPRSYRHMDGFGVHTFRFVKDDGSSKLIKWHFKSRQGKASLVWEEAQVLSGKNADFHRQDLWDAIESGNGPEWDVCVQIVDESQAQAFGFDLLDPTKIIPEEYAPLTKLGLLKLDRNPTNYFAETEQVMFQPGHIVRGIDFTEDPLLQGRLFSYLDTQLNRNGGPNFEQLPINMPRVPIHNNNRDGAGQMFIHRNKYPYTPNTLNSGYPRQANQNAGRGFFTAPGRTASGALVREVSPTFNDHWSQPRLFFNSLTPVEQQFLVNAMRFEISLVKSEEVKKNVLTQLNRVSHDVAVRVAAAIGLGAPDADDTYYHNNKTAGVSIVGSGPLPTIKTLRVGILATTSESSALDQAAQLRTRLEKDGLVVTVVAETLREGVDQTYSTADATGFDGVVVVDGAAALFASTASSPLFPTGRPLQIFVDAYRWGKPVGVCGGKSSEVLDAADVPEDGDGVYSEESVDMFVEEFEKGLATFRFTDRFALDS

CATPO E484A variant [2] = target: T2, CATPO E484A variant (Scytalidium thermophilum (Humicola insolens), UniProt M4GGR5, E503A); test: as above; format: biochemical; settings: for K m: pH 7.0 (ABTS pH 5.0), 60°C
T2 sequence (M4GGR5 entry or part of it E503A): as the sequence (M4GGR5 entry or part of it) above

CATPO E484D variant [3] = target: T3, CATPO E484D variant (Scytalidium thermophilum (Humicola insolens), UniProt M4GGR5, E503D); format: biochemical; settings: for K m: pH 7.0 (ABTS pH 5.0), 60°C
T3 sequence (M4GGR5 entry or part of it E503D): as the sequence (M4GGR5 entry or part of it) above

CATPO E484I variant [4] = target: T4, CATPO E484I variant (Scytalidium thermophilum (Humicola insolens), UniProt M4GGR5, E503I); format: biochemical; settings: for K m: pH 7.0 (ABTS pH 5.0), 60°C
T4 sequence (M4GGR5 entry or part of it E503I): as the sequence (M4GGR5 entry or part of it) above

CATPO T188A variant [5] = target: T5, CATPO T188A variant (Scytalidium thermophilum (Humicola insolens), UniProt M4GGR5, T207A); format: biochemical; settings: for K m: pH 7.0 (ABTS pH 5.0), 60°C
T5 sequence (M4GGR5 entry or part of it T207A): as the sequence (M4GGR5 entry or part of it) above

CATPO T188D variant [6] = target: T6, CATPO T188D variant (Scytalidium thermophilum (Humicola insolens), UniProt M4GGR5, T207D); format: biochemical; settings: for K m: pH 7.0 (ABTS pH 5.0), 60°C
T6 sequence (M4GGR5 entry or part of it T207D): as the sequence (M4GGR5 entry or part of it) above

CATPO T188F variant [7] = target: T7, CATPO T188F variant (Scytalidium thermophilum (Humicola insolens), UniProt M4GGR5, T207F); format: biochemical; settings: for K m: pH 7.0 (ABTS pH 5.0), 60°C
T7 sequence (M4GGR5 entry or part of it T207F): as the sequence (M4GGR5 entry or part of it) above

CATPO T188I variant [8] = target: T8, CATPO T188I variant (Scytalidium thermophilum (Humicola insolens), UniProt M4GGR5, T207I); format: biochemical; settings: for K m: pH 7.0 (ABTS pH 5.0), 60°C
T8 sequence (M4GGR5 entry or part of it T207I): as the sequence (M4GGR5 entry or part of it) above

CATPO [9] = target: T1, CATPO; test: Inhibition of catechol oxidation; format: biochemical
CATPO E484A variant [10] = target: T2, CATPO E484A variant; test: biochemical
CATPO E484D variant [11] = target: T3, CATPO E484D variant; test: biochemical
CATPO E484I variant [12] = target: T4, CATPO E484I variant; test: biochemical
CATPO T188A variant [13] = target: T5, CATPO T188A variant; test: biochemical
CATPO T188D variant [14] = target: T6, CATPO T188D variant; test: biochemical
CATPO T188F variant [15] = target: T7, CATPO T188F variant; test: biochemical
CATPO T188I variant [16] = target: T8, CATPO T188I variant; test: biochemical
[17] = catechol oxidation by CATPO, catechol 1 to 100 mM, read-out: K i

OO [hydrogen peroxide]
effect of addition on phenol oxidase activity (CATPO variants): not affected

CC(C)(C)c1ccc(O)c(O)c1 [1,4-tert-Butylcatechol, 4-tert-butylcatechol]
V max (CATPO [1]): 20000 ± 362 mM/min | k cat/K m (CATPO [1]): 1240 ± 90 s^−1 M^−1 (×10^2) | V max (CATPO E484A variant [2]): 65000 ± 745 mM/min | k cat/K m (CATPO E484A variant [2]): 10000 ± 65 s^−1 M^−1 (×10^2) | K m (CATPO E484A variant [2]): 33 ± 0.5 mM | V max (CATPO E484D variant [3]): 18800 ± 144 mM/min | k cat/K m (CATPO E484D variant [3]): 1300 ± 100 s^−1 M^−1 (×10^2) | K m (CATPO E484D variant [3]): 38 ± 0.5 mM | V max (CATPO E484I variant [4]): 28600 ± 430 mM/min | k cat/K m (CATPO E484I variant [4]): 4450 ± 66 s^−1 M^−1 (×10^2) | K m (CATPO E484I variant [4]): 37 ± 0.4 mM | V max (CATPO T188A variant [5]): 19400 ± 568 mM/min | k cat/K m (CATPO T188A variant [5]): 1460 ± 150 s^−1 M^−1 (×10^2) | K m (CATPO T188A variant [5]): 37 ± 1.0 mM | V max (CATPO T188D variant [6]): 18000 ± 500 mM/min | k cat/K m (CATPO T188D variant [6]): 6590 ± 150 s^−1 M^−1 (×10^2) | K m (CATPO T188D variant [6]): 38 ± 0.5 mM | V max (CATPO T188F variant [7]): 41600 ± 340 mM/min | k cat/K m (CATPO T188F variant [7]): 5230 ± 145 s^−1 M^−1 (×10^2) | K m (CATPO T188F variant [7]): 34 ± 0.4 mM | V max (CATPO T188I variant [8]): 30500 ± 650 mM/min | k cat/K m (CATPO T188I variant [8]): 4900 ± 410 s^−1 M^−1 (×10^2) | K m (CATPO T188I variant [8]): 35 ± 0.5 mM | Ki (CATPO [9]; [17]): 2.1 ± 0.8 mM | Ki (CATPO E484A variant [10]): 67 ± 7 mM | Ki (CATPO E484D variant [11]): 2.2 ± 0.5 mM | Ki (CATPO E484I variant [12]): 50 ± 1.5 mM | Ki (CATPO T188A variant [13]): 2.1 ± 0.1 mM | Ki (CATPO T188D variant [14]): 49 ± 3.2 mM | Ki (CATPO T188F variant [15]): 59 ± 4.5 mM | Ki (CATPO T188I variant [16]): 53 ± 4.5 mM

Oc1ccc(O)cc1 [Hydroquinone, p-hydroquinone]
V max (CATPO [1]): 10000 ± 300 mM/min | k cat/K m (CATPO [1]): 750 ± 50 s^−1 M^−1 (×10^2) | K m (CATPO [1]; pH 7.0 (ABTS pH 5.0), 60°C): 45 ± 1.5 mM | V max (CATPO E484A variant [2]): 17800 ± 100 mM/min | k cat/K m (CATPO E484A variant [2]): 600 ± 40 s^−1 M^−1 (×10^2) | K m (CATPO E484A variant [2]): 43 ± 1.2 mM | V max (CATPO E484D variant [3]): 9900 ± 125 mM/min | k cat/K m (CATPO E484D variant [3]): 300 ± 50 s^−1 M^−1 (×10^2) | K m (CATPO E484D variant [3]): 46 ± 0.8 mM | V max (CATPO E484I variant [4]): 10000 ± 100 mM/min | k cat/K m (CATPO E484I variant [4]): 460 ± 20 s^−1 M^−1 (×10^2) | K m (CATPO E484I variant [4]): 45 ± 1.3 mM | V max (CATPO T188A variant [5]): 9850 ± 85 mM/min | k cat/K m (CATPO T188A variant [5]): 300 ± 30 s^−1 M^−1 (×10^2) | K m (CATPO T188A variant [5]): 46 ± 0.4 mM | V max (CATPO T188D variant [6]): 9600 ± 65 mM/min | k cat/K m (CATPO T188D variant [6]): 480 ± 64 s^−1 M^−1 (×10^2) | K m (CATPO T188D variant [6]): 46 ± 1.0 mM | V max (CATPO T188F variant [7]): 13000 ± 140 mM/min | k cat/K m (CATPO T188F variant [7]): 530 ± 65 s^−1 M^−1 (×10^2) | K m (CATPO T188F variant [7]): 42 ± 1.0 mM | V max (CATPO T188I variant [8]): 11000 ± 110 mM/min | k cat/K m (CATPO T188I variant [8]): 490 ± 78 s^−1 M^−1 (×10^2) | K m (CATPO T188I variant [8]): 44 ± 0.4 mM | Ki (CATPO [9]): 8.5 ± 0.5 mM | Ki (CATPO E484A variant [10]): 81 ± 4.7 mM | Ki (CATPO E484D variant [11]): 8.5 ± 1.4 mM | Ki (CATPO E484I variant [12]): 70 ± 3.5 mM | Ki (CATPO T188A variant [13]): 8.6 ± 0.6 mM | Ki (CATPO T188D variant [14]): 66 ± 5.5 mM | Ki (CATPO T188F variant [15]): 76 ± 5.1 mM | Ki (CATPO T188I variant [16]): 70 ± 4 mM

Cc1ccc(O)c(O)c1 [4-Methylcatechol, 4-methylcatechol]
V max (CATPO [1]): 21320 ± 845 mM/min | k cat/K m (CATPO [1]): 1580 ± 110 s^−1 M^−1 (×10^2) | V max (CATPO E484A variant [2]): 75500 ± 550 mM/min | k cat/K m (CATPO E484A variant [2]): 10100 ± 90 s^−1 M^−1 (×10^2) | K m (CATPO E484A variant [2]): 33 ± 1.0 mM | V max (CATPO E484D variant [3]): 20600 ± 712 mM/min | k cat/K m (CATPO E484D variant [3]): 1500 ± 88 s^−1 M^−1 (×10^2) | K m (CATPO E484D variant [3]): 36 ± 0.1 mM | V max (CATPO E484I variant [4]): 41500 ± 840 mM/min | k cat/K m (CATPO E484I variant [4]): 5480 ± 80 s^−1 M^−1 (×10^2) | K m (CATPO E484I variant [4]): 35 ± 0.7 mM | V max (CATPO T188A variant [5]): 21000 ± 880 mM/min | k cat/K m (CATPO T188A variant [5]): 1640 ± 210 s^−1 M^−1 (×10^2) | K m (CATPO T188A variant [5]): 35 ± 1.0 mM | V max (CATPO T188D variant [6]): 28000 ± 970 mM/min | k cat/K m (CATPO T188D variant [6]): 7620 ± 100 s^−1 M^−1 (×10^2) | K m (CATPO T188D variant [6]): 30 ± 0.1 mM | V max (CATPO T188F variant [7]): 54150 ± 800 mM/min | k cat/K m (CATPO T188F variant [7]): 6570 ± 560 s^−1 M^−1 (×10^2) | K m (CATPO T188F variant [7]): 32 ± 1.0 mM | V max (CATPO T188I variant [8]): 43000 ± 900 mM/min | k cat/K m (CATPO T188I variant [8]): 6600 ± 600 s^−1 M^−1 (×10^2) | K m (CATPO T188I variant [8]): 34 ± 1.2 mM | Ki (CATPO [9]; [17]): 1.5 ± 0.4 mM | Ki (CATPO E484A variant [10]): 55 ± 5 mM | Ki (CATPO E484D variant [11]): 1.5 ± 0.1 mM | Ki (CATPO E484I variant [12]): 46 ± 2 mM | Ki (CATPO T188A variant [13]): 1.5 ± 0.4 mM | Ki (CATPO T188D variant [14]): 50 ± 2.5 mM | Ki (CATPO T188F variant [15]): 45 ± 4.8 mM | Ki (CATPO T188I variant [16]): 40 ± 2.4 mM

CCO [ethanol]
effect of addition on phenol oxidase activity (CATPO variants): not affected

Reference: paper PMC10836395, “Investigation of how gate residues in the main channel affect the catalytic activity of Scytalidium thermophilum catalase” (Acta Crystallographica. Section D, Structural Biology, 2024)
